From the supplement of paper PMC11061612

Assays:
Assay in all cases: combination Emax (second highest fraction inhibited in the dose matrix, 72 h); higher = more inhibition; extreme values may be limits of the assay
[1] = test system: NCI-H1581 (Non-Small Cell Lung Carcinoma)
Summary of the method: (§1)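 Cell lines in DMEM/F12 or RPMI with 10% FBS were plated in 1536-well plates, held 24 hours at 37°C, 5% CO2, then given two-drug dose matrices for 72 hours (DMSO typically 0.2%). Viability was read by CellTiter-Glo 2.0 luminescence and scaled as inhibition from 0 (vehicle wells) to 1 (blank wells). Combination Emax is the second-highest inhibition in the matrix; Bliss excess is observed combination effect minus expected EA + EB − EA·EB, EA and EB being single-agent effects.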

[2] = test system: LN-405 (Glioblastoma)
Summary of the method: as §1

[3] = test system: MDST8 (Colorectal Carcinoma)
Summary of the method: as §1

[4] = test system: NCI-H2591 (Mesothelioma)
Summary of the method: as §1

[5] = test system: COLO-824 (Breast Carcinoma)
Summary of the method: as §1

[6] = test system: ECC10 (Gastric Carcinoma)
Summary of the method: as §1

[7] = test system: U-2-OS (Osteosarcoma)
Summary of the method: as §1

[8] = test system: NCI-H2141 (Small Cell Lung Carcinoma)
Summary of the method: as §1

[9] = test system: SK-MG-1 (Low Grade Glioma)
Summary of the method: as §1

[10] = test system: NCI-H1650 (Lung Adenocarcinoma)
Summary of the method: as §1

[11] = test system: GI-ME-N (Neuroblastoma)
Summary of the method: as §1

[12] = test system: PA-1 (Ovarian Carcinoma)
Summary of the method: as §1

[13] = test system: KARPAS-422 (B-Cell Non-Hodgkin's Lymphoma)
Summary of the method: as §1

[14] = test system: CCK-81 (Colorectal Carcinoma)
Summary of the method: as §1

[15] = test system: NCI-H64 (Small Cell Lung Carcinoma)
Summary of the method: as §1

[16] = test system: COLO-320-HSR (Colorectal Carcinoma)
Summary of the method: as §1

[17] = test system: NCI-H2066 (Squamous Cell Lung Carcinoma)
Summary of the method: as §1

[18] = test system: NCI-H1693 (Lung Adenocarcinoma)
Summary of the method: as §1

[19] = test system: SK-MES-1 (Squamous Cell Lung Carcinoma)
Summary of the method: as §1

[20] = test system: NCI-H1666 (Lung Adenocarcinoma)
Summary of the method: as §1

Structure (SMILES) | combination Emax [1] | combination Emax [2] | combination Emax [3] | combination Emax [4] | combination Emax [5] | combination Emax [6] | combination Emax [7] | combination Emax [8] | combination Emax [9] | combination Emax [10] | combination Emax [11] | combination Emax [12] | combination Emax [13] | combination Emax [14] | combination Emax [15] | combination Emax [16] | combination Emax [17] | combination Emax [18] | combination Emax [19] | combination Emax [20]
CN(C)CCCOc1ccc(-c2ccc3ncc4c(c3c2)n(C2CCOCC2)c(=O)n4C)cn1 [AZD0156] + C=CCn1c(=O)c2cnc(Nc3ccc(N4CCN(C)CC4)cc3)nc2n1-c1cccc(C(C)(C)O)n1 [AZD1775] (first compound max 1 µM, partner max 1 µM) | 0.331 | 0.134 | 0.416 | 0.191 | 0.644 | 0.783 | 0.734 | 0.558 | 0.525 | 0.385 | 0.321 | 0.789 | 0.607 | 0.903 | 0.832 | 0.719 | 0.208 | 0.179 | 0.555 | 0.314
CN(C)CCCOc1ccc(-c2ccc3ncc4c(c3c2)n(C2CCOCC2)c(=O)n4C)cn1 [AZD0156] + CCN(CCO)CCCOc1ccc2c(Nc3cc(CC(=O)Nc4cccc(F)c4)[nH]n3)ncnc2c1 [AZD2811] (first compound max 1 µM, 7x7, partner max 1 µM) | 0.271 | 0.0969 | 0.281 | 0.112 | 0.818 | 0.856 | 0.152 | 0.289 | 0.388 | 0.101 | 0.0704 | 0.407 | 0.641 | 0.159 | 0.461 | 0 | 0.192 | 0.142 | 0.204 | 0.211
CN(C)CCCOc1ccc(-c2ccc3ncc4c(c3c2)n(C2CCOCC2)c(=O)n4C)cn1 [AZD0156] + C[C@@H]1COCCN1C2=NC(=NC(=C2)C3(CC3)[S@](=N)(=O)C)C4=C5C=CNC5=NC=C4 [AZD6738] (first compound max 1 µM, 7x7, partner max 10 µM) | 0.418 | 0.376 | 0.919 | 0.293 | 0.712 | 0.332 | 0.856 | 0.462 | 0.565 | 0.376 | 0.697 | 0.85 | 0.653 | 0.912 | 0.732 | 0.652 | 0.35 | 0.192 | 0.73 | 0.331
CN(CCO)CC[C@H](CSc1ccccc1)Nc1ccc(S(=O)(=O)NC(=O)c2ccc(N3CCC([C@@H](O)c4ccccc4-c4ccc(Cl)cc4)CC3)cc2)cc1S(=O)(=O)C(F)(F)F [AZD4320] + C1CN(CCC1(C(=O)N[C@@H](CCO)C2=CC=C(C=C2)Cl)N)C3=NC=NC4=C3C=CN4 [Capivasertib] (first compound max 1 µM, 7x7, partner max 3 µM) | 0.0979 | 0.45 | 0.914 | 0.101 | 1 | 1 | 0.225 | 0.829 | 0.413 | 0.143 | 0.153 | 0.743 | 0.989 | 0.135 | 0.95 | 0.0137 | 0.923 |  | 0.104 | 0.201
CN(CCO)CC[C@H](CSc1ccccc1)Nc1ccc(S(=O)(=O)NC(=O)c2ccc(N3CCC([C@@H](O)c4ccccc4-c4ccc(Cl)cc4)CC3)cc2)cc1S(=O)(=O)C(F)(F)F [AZD4320] + CN(C)CCCOc1ccc(-c2ccc3ncc4c(c3c2)n(C2CCOCC2)c(=O)n4C)cn1 [AZD0156] (first compound max 1 µM, 7x7, partner max 1 µM) | 0.19 | 0.275 | 0.772 | 0.13 | 1 | 1 | 0.259 | 0.801 | 0.274 | 0.0865 | 0.156 | 0.497 | 0.957 |  | 0.973 | 0.01 | 0.619 | 0.19 | 0.208 | 0.141
